Experimental data taken from US6030960A, “Method of treating hepatitis virus infections” (priority 1998, dated 2000).
Converted amounts (≈) assume the structure as drawn. “And” between values parts separate entries of the source, which are not always exact repeats. Equal entries are not always repeated. “Also recorded” adds a separate entry of the source. Where two headings read alike, the source gives them in different places.

Key:
[1] = test system: Hepatitis B virus; test: Effect of alkyl lipids on HBV replication in HBV persistently infected human HEP G2 cells (Table 6); assay type: cell-based; conditions: for Intracellular HBV DNA, RI (replication intermediates) / Intracellular HBV DNA, Mono (episomal 3.2-3.8 Kb HBV genomes): nine days
In short: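 Persistently HBV-infected HepG2 cells exposed to compound for nine days at 37 °C, intracellular HBV DNA analysed 24 h after day nine. Episomal 3.2-3.8 Kb genomes and replication intermediates normalized to integrated HBV DNA; virion DNA detection cut-off 0.1 pg DNA/ml culture medium.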

[2] = test system: Hepatitis B virus; test: Effect on synthesis of antigen markers in persistently infected human HEP G2 cell cultures (Table 7); assay type: cell-based; conditions: for activity at 10 µM: Hepatitis B virus, HepG2, 216 h
In short: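 Persistently infected HepG2 cells treated with compound for nine days at 37° C. Culture medium then harvested: HBsAg and HBeAg quantified by EIA, virion DNA by hybridisation-based DNA measurement. Sensitivity cut-off 0.1 pg DNA/ml medium.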

[3] = test system: HIV-1; assay type: in vivo; conditions: rat, single oral dose of 15 mg/kg by gavage
Protocol: The biologic activity of alkyl lipid CP-51 was evaluated in vivo. Sprague Dawley rats were fasted for 18 hours and received a single oral dose of 15 mg/kg of the alkyl lipid CP-51 by gavage. An in-dwelling carotid catheter was used to harvest whole blood at various times post-dose. The plasma containing the alkyl lipid was diluted 1:2 to 1:128 in phosphate buffered saline and assayed for biologic activity using the HIV-1 syncytial plaque test. CEM-SS cell monolayers were infected with HIV-1 and overlaid with RPMI-1640 medium containing serial dilutions of plasma. After incubation for five days at 37° C., the number of HIV-1 syncytial plaques was counted as previously described (Kucera et al., AIDS Res. Human Retroviruses, 6: 491-501, (1990)).

[4] = test system: HEP G2 cells persistently infected with HBV; test: Cytotoxicity in HBV persistently infected human HEP G2 cells, neutral red dye uptake (Table 5); assay type: cell-based
In short: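 HBV-transfected HEP-G2 monolayers in RPMI-1640 were given compound at four serial concentrations in triplicate for nine days at 37 °C, with periodic medium replacement. Toxicity from 0.01% neutral red uptake (A510), as percent of nine untreated control wells on the same plate.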

[5] = test system: mouse precursor erythrocyte (CFU-E); test: Cytotoxicity: inhibition of mouse precursor erythrocyte (CFU-E) colony formation; assay type: cell-based
Protocol: CP-51 and AZT were assayed for cytotoxicity by inhibition of mouse precursor erythrocyte (CFU-E) and granulocyte/macrophage (CFU-GM) cell colony formation.

[6] = test system: granulocyte/macrophage (CFU-GM); test: Cytotoxicity: inhibition of mouse granulocyte/macrophage (CFU-GM) colony formation; assay type: cell-based; conditions: read-out: inhibitory concentration 50% for colony formation (IC50)
Protocol: CP-51 and AZT were assayed for cytotoxicity by inhibition of mouse precursor erythrocyte (CFU-E) and granulocyte/macrophage (CFU-GM) cell colony formation. Mouse bone marrow precursor cells were suspended in soft-agar-RPMI-1640 medium supplmented with cell growth factors and serial concentrations of alkyl lipid.

[7] = test system: Friend-Leukemia virus; test: Inhibition of retrovirus-induced splenomegaly in Friend-Leukemia virus infected mice (Table 9); assay type: in vivo
Protocol: Mice were infected I.P. with Friend-Leukemia virus and not treated or treated I.P. with daily doses of phospholipid. After 14 days infection and treatment, the mice were sacrificed, the spleens were removed and weighed to determine the percentage, of control splenomegaly. […] Even a single dose of 25 mg/kg CP-51 inhibited splenomegaly by 36%.

**Q.** Which results are given for `Nc1ccn([C@H]2CC[C@@H](CO)O2)c(=O)n1` [2',3'-dideoxycytidine, 2', 3'-dideoxycytidine, reference compound]?
**A.** HBV Virion DNA ([1]; 10 μM, Day 0): 67 pg/ml Culture Medium and 64 pg/ml Culture Medium and 58 pg/ml Culture Medium and 59 pg/ml Culture Medium; HBV Virion DNA ([1]; 10 μM, Day 3): 49 pg/ml Culture Medium and 55 pg/ml Culture Medium and 50 pg/ml Culture Medium and 58 pg/ml Culture Medium; HBV Virion DNA ([1]; 10 μM, Day 6): 20 pg/ml Culture Medium and 18 pg/ml Culture Medium and 17 pg/ml Culture Medium and 15 pg/ml Culture Medium; Intracellular HBV DNA, RI (replication intermediates) ([1]; 10 μM): 8 pg/μg Cell DNA and 7 pg/μg Cell DNA and 9 pg/μg Cell DNA; Relative Level of HBeAg ([2]; 10 μM, nine days, 12960 min): 115 % of Untreated Control and 98 % of Untreated Control; Relative Level of HBsAg ([2]; 10 μM, nine days, 12960 min): 112 % of Untreated Control and 102 % of Untreated Control; Relative Level of Virion DNA ([2]; 10 μM, nine days, 12960 min): 2 % of Untreated Control; activity at 10 µM ([2]; read-out: Relative Level of HBeAg, 10 μM, nine days): 101%; activity at 10 µM ([2]; read-out: Relative Level of HBsAg, 10 μM, nine days): 100%; activity at 10 µM ([2]; read-out: Relative Level of Virion DNA, 10 μM, nine days): 2%

**Q.** Which results are given for `CCCCCCCCCCCCCCCCCC(=O)NCC(COP(=O)([O-])OCC[N+](C)(C)C)OCC` (racemic) [CP-51, rac-3-octadecanamido-2-ethyoxy-1-propylphosphocholine]?
**A.** absorption into the blood [3]: rapidly absorbed into the blood of rats; biologically active concentrations in the blood (plasma) ([3]; HIV-1 syncytial plaque test): biologically active concentrations of the compound CP-51 were obtained in the blood (plasma); Cell toxicity (greater than 50% depression of dye uptake) [4]: did not occur; % of Control Neutral Red Dye Uptake ([4]; human, hep-g2 cells, 216 h, 3 µM): 101 ± 1 % of Control; cytotoxicity relative to AZT ([5]; CFU-E and CFU-GM, in words): significantly less cytotoxic than AZT; IC50 ([5]; Mus musculus, Erythrocyte, read-out: inhibitory concentration 50% for colony formation (IC50)): 41 µg/mL (≈ 74.4 µM); Intracellular HBV DNA, Mono (episomal 3.2-3.8 Kb HBV genomes) ([1]; 0.1 μM): 2.7 pg/μg Cell DNA and 2.4 pg/μg Cell DNA and 2.3 pg/μg Cell DNA and 2.5 pg/μg Cell DNA and 2.9 pg/μg Cell DNA and 2.2 pg/μg Cell DNA and 2.6 pg/μg Cell DNA and 2.1 pg/μg Cell DNA; Intracellular HBV DNA, RI (replication intermediates) ([1]; 0.1 μM): 54 pg/μg Cell DNA and 62 pg/μg Cell DNA and 51 pg/μg Cell DNA; HBV Virion DNA ([1]; 1 μM, Day 9): 9 pg/ml Culture Medium and 8 pg/ml Culture Medium and 12 pg/ml Culture Medium and 10 pg/ml Culture Medium and 13 pg/ml Culture Medium and 11 pg/ml Culture Medium and 14 pg/ml Culture Medium and 16 pg/ml Culture Medium; Intracellular HBV DNA, Mono (episomal 3.2-3.8 Kb HBV genomes) ([1]; 1 μM): 2.2 pg/μg Cell DNA and 2.3 pg/μg Cell DNA and 2.4 pg/μg Cell DNA and 2.6 pg/μg Cell DNA and 2.0 pg/μg Cell DNA and 2.1 pg/μg Cell DNA; Intracellular HBV DNA, RI (replication intermediates) ([1]; 1 μM): 12 pg/μg Cell DNA and 16 pg/μg Cell DNA and 17 pg/μg Cell DNA and 14 pg/μg Cell DNA and 13 pg/μg Cell DNA and 23 pg/μg Cell DNA and 21 pg/μg Cell DNA and 18 pg/μg Cell DNA; HBV Virion DNA ([1]; 10 μM, Day 0): 59 pg/ml Culture Medium and 58 pg/ml Culture Medium and 60 pg/ml Culture Medium and 78 pg/ml Culture Medium and 51 pg/ml Culture Medium and 56 pg/ml Culture Medium and 64 pg/ml Culture Medium; HBV Virion DNA ([1]; 10 μM, Day 3): 55 pg/ml Culture Medium and 49 pg/ml Culture Medium and 44 pg/ml Culture Medium and 48 pg/ml Culture Medium and 33 pg/ml Culture Medium and 30 pg/ml Culture Medium and 36 pg/ml Culture Medium and 40 pg/ml Culture Medium; HBV Virion DNA ([1]; 10 μM, Day 6): 20 pg/ml Culture Medium and 13 pg/ml Culture Medium and 10 pg/ml Culture Medium and 18 pg/ml Culture Medium and 12 pg/ml Culture Medium and 11 pg/ml Culture Medium and 14 pg/ml Culture Medium; Intracellular HBV DNA, Mono (episomal 3.2-3.8 Kb HBV genomes) ([1]; 10 μM): 1.7 pg/μg Cell DNA and 1.9 pg/μg Cell DNA and 1.8 pg/μg Cell DNA and 2.0 pg/μg Cell DNA and 1.3 pg/μg Cell DNA and 1.1 pg/μg Cell DNA and 1.2 pg/μg Cell DNA and 1.0 pg/μg Cell DNA; inhibition of HBV virion DNA and intracellular HBV RI DNA levels ([1]; in words, versus ddC): markedly inhibited; also recorded: substantially inhibited; Relative Level of HBeAg ([2]; 10 μM, nine days, 12960 min): 20 % of Untreated Control; Relative Level of HBsAg ([2]; 10 μM, nine days, 12960 min): 78 % of Untreated Control and 114 % of Untreated Control; activity at 10 µM ([2]; 10 μM, nine days, read-out: Relative Level of HBeAg): 23%; effect on HBsAg levels released into the culture medium ([2]; in words): None of the compounds tested; reduction in HBeAg and virion DNA levels ([2]; in words): caused a reduction; also recorded: most active compounds in suppressing HBeAg and virion DNA levels; IC50 [6]: 11 µg/mL (≈ 20 µM); inhibition of retrovirus-induced splenomegaly ([7]; 12.5 mg/kg/day intraperitoneally): 43%; % of Control Splenomegaly ([7]; 12.5 mg/kg/day, daily treatment): 43 % of Control; % of Control Splenomegaly ([7]; 25 mg/kg, one treatment): 36 % of Control; anti-retrovirus activity in infected animals ([7]; in words): has anti-retrovirus activity in infected animals; inhibition of retrovirus-induced splenomegaly ([7]; single dose of 25 mg/kg): 36%
